# Tests used:
# [1] = test system: fast voltage-gated sodium channels in rat prefrontal cortex pyramidal neurons; test: patch-clamp of fast voltage-gated sodium currents in prefrontal cortex pyramidal neurons; type: cell-based; details: 10 μM, control = 1.0, n = 5
# Text: Figure 9 Compounds (R)-31 and (R)-32 inhibit fast voltage-gated sodium currents in prefrontal cortex pyramidal neurons. (A) Example sodium current recordings in control (black trace), after application of (R)-31 (blue trace) and after wash-out (red trace). Current traces were evoked by a rectangular voltage-step. (B) Influence of (R)-31 on sodium current is shown on an example neuron. Current traces were evoked once every 10 s. […] (C) Averaged, normalized maximal sodium current amplitudes in control, in the presence of (R)-31 and after wash-out. […] (D) Example sodium current recordings in control (black trace), after application of (R)-32 (blue trace) and after wash-out (red trace). Current traces were evoked by a rectangular voltage-step. (E) Influence of (R)-32 on sodium current is shown on an example neuron. Current traces were evoked once every 10 s. […] (F) Averaged, normalized maximal sodium current amplitudes in control, in the presence of (R)-32 and after wash-out.
# Patch-clamp studies were carried out in prefrontal cortex pyramidal neurons. The methodology of slice preparation, preparation of dispersed cortical neurons, and sodium currents recording technique were the same as in our previous study.[99]
# CYP3A4 = biological target: T1, CYP3A4 (Homo sapiens, UniProt P08684); test: CYP3A4 P450-Glo assay; type: in vitro ADME; details: 10 μM
# T1 construct: purchased Promega (Madison, WI, USA)
# T1 sequence (P08684 whole entry): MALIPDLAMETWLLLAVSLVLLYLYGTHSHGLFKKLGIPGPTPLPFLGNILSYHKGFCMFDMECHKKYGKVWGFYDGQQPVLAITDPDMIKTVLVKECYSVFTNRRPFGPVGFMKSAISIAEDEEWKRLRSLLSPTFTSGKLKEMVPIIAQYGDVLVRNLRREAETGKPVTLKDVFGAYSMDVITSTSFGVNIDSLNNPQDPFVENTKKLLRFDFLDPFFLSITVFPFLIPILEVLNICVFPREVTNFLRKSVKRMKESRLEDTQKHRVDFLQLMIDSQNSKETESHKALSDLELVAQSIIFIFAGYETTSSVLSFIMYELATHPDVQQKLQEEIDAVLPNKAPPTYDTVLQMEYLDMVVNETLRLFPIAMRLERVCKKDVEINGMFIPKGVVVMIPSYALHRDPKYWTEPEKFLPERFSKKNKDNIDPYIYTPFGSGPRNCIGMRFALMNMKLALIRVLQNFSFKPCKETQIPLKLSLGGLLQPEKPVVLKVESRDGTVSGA
# Method: The inhibition effect of enantiomers on CYP2C9 was also determined, but only at the highest concentrations (Figure 10C). In summary, the potential for DDIs of the tested enantiomers in comparison to the reference CYP inhibitors was estimated as very low.
# Figure 10 Influence of (R)-31, (R)-32, and (R)-33 on: CYP3A4 activity (A) and the reference inhibitor ketoconazole (KE), CYP2D6 activity (B) and the reference inhibitor quinidine (QD), CYP2C9 activity (C) and the reference inhibitor sulfaphenazole (SE). The results are presented as means + SD. Statistical significance was evaluated by one-way ANOVA, followed by Bonferroni’s multiple comparison post hoc test (Graph Pad Prism 8.0.1 software) *p < 0.05, **p < 0.01, ***p < 0.001, ****p < 0.0001.
# All assays and protocols used for the evaluation of compounds ADME-Tox parameters were described previously.[35]−[38],[95]−[98] […] The vitality of the cells was assessed using the CellTiter 96 AQueous Non-Radioactive Cell Proliferation Assay (Promega, Madison, WI, USA), following a 48 h incubation period with either the reference medication, doxorubicin (DOX), or serial dilutions of the investigated compounds. Using an EnSpire PerkinElmer microplate reader (Waltham, MA, USA), the luminescent signal and absorbances (measured at 490 nm) in DDIs and safety assays were determined. […]
# [2] = thermogravimetric analysis and differential scanning calorimetry; type: physicochemical
# Text: Bearing in mind that the active pharmaceutical ingredients are often exposed to heat upon a final dosage form manufacturing (e.g., granulation, hot melt-extrusion, and coating), high thermal stability of the compound is a favorable feature predisposing the molecule (R)-32 for a further development. Another property that may considerably slow down the process of bringing a new molecule to the market is limited solubility in water. Thus, a simple approach to verify if it would be possible to overcome this drawback by the physical modification of its crystalline structure was also undertaken. […] The melting endotherm of crystalline (R)-32 had the onset ca. 115 °C and the minimum at 126 °C. After a simple thermal treatment such as cooling of the melt, the amorphous form of (R)-32 was obtained. Its glass transition temperature was relatively low, ca. 30 °C, which means that (R)-32 should be coprocessed with excipients of antiplasticizing properties to develop enabling formulations stable at ambient storage conditions.
# A Mettler Toledo thermogravimetric analysis/SDTA 851^e apparatus calibrated with indium, zinc, and aluminum was used. Its accuracy was equal to 10^–6 g. The samples were placed in an open aluminum crucible. The measurements were performed in Ar 5.0 (50 mL/min). The temperature ranged from 25 to 400 °C. The constant heating rate of 10 °C/min was applied. […]
Structure (SMILES),"averaged, maximal-normalized amplitude of voltage-gated sodium currents after application [1]","averaged, maximal-normalized amplitude of voltage-gated sodium currents after wash-out [1]",effect on CYP3A4 activity (CYP3A4),melting point [°C],"thermally stable while heating up to (weight loss noted, TGA) ([2]; 10 °C/min) [°C]",glass transition temperature of the amorphous form (DSC) ([2]; after cooling of the melt)
"CC(=O)N[C@@H](C(=O)N1CCN(c2cccc(C(F)(F)F)c2)CC1)c1ccccc1 [(R)-31, (R)-N-(2-Oxo-1-phenyl-2-(4-(3-(trifluoromethyl)phenyl)piperazin-1-yl)ethyl)acetamide]",0.66 ± 0.04,0.76 ± 0.05,significantly inhibited,112.9 to 113.5,,
"CC(=O)N[C@@H](C(=O)N1CCN(c2cccc(OC(F)(F)F)c2)CC1)c1ccccc1 [(R)-32, (R)-N-(2-Oxo-1-phenyl-2-(4-(3-(trifluoromethoxy)phenyl)piperazin-1-yl)ethyl)acetamide]",0.61 ± 0.07,0.72 ± 0.08,,,190,ca. 30 °C

# From publication PMC11378297, “Discovery and Profiling of New Multimodal Phenylglycinamide Derivatives as Potent Antiseizure and Antinociceptive Drug Candidates” (ACS Chemical Neuroscience, 2024)
